Holding throughout (type): in vivo, healthy adult subjects
A short description of series [1]: Phase 1 single ascending dose study: plasma pharmacokinetics of syn-ACTH. The procedure: (§1) Subjects who met all of the inclusion criteria and none of the exclusion criteria were enrolled in the study. Safety and tolerability were evaluated throughout the study, including all adverse events (AEs); physical examination findings; vital sign measurements; 12-lead electrocardiogram (ECG) findings; standard clinical laboratory measurements (eg, serum chemistry, hematology, and urinalysis); and injection site evaluations. Immunogenicity, as measured by antidrug antibodies (ADA) were evaluated. PD effects were assessed based on levels of cortisol and an adrenal panel of intermediates (dehydroepiandrosterone [DHA], 17-hydroxypregnenolone, and 17 hydroxyprogesterone). Blood samples for measurement of syn-ACTH concentrations were also collected (AMZ002 cohorts only).
Blood samples were collected prior to dosing on Day 1; at 5, 15, 30, and 45 minutes postdose; and at 1, 1.5, 2, 2.5, 3, 4, 5, 6, 8, 10, 12, 24, 30, 36, and 48 hours postdose.
The following plasma PK (pharmacokinetics) parameters of syn-ACTH were calculated from individual syn-ACTH concentration data for each cohort: • Maximum plasma concentration (Cmax) if the maximum value occurred at more than 1 time point, Cmax was defined as the first value; • Time to Cmax (Tmax); • Terminal elimination constant rate (λz); • Terminal elimination half-life (t1/2), calculated as ln(2)/λz; • AUC from time 0 to the last quantifiable plasma concentration (Clast) (AUClast); • AUC from time 0 to infinity (AUCinf);
Proportion of AUCinf due to extrapolation (%)(AUCextr), calculated as 100×(Clast/λz)/AUCinf; • Apparent clearance (CL/F); calculated as Dose/AUCinf; and • Apparent volume of distribution (Vz/F), calculated as Dose/[λz×AUCinf].

The test system of series [2] is cortisol and an adrenal panel of intermediates (DHA, 17-hydroxypregnenolone, 17-hydroxyprogesterone). The series can be described thus: Phase 1 single ascending dose study: pharmacodynamics (plasma cortisol and adrenal panel of intermediates). The method, then: This was a Phase 1, single-blind, active-controlled, single ascending dose study to compare the PD effects of the investigational drug AMZ002 with those of H.P. Acthar Gel and Cortrosyn in healthy adult subjects. AMZ002 is a sterile solution for IM injection, formulated to contain 0.5 mg/mL ACTH having the sequence […] Phe, 50 mg/mL dextrose, 10 mg/mL sodium carboxymethylcellulose, and 5 mg/mL phenol (pH 6.4). The concentration of 0.5 mg/mL was chosen to reduce possible errors resulting from the preparation of small dose volumes (e.g., less than 0.4 ml).
The study consisted of 8 cohorts, with 8 subjects per cohort (each a single dose): Cortrosyn 0.25 mg; H.P. Acthar Gel 25 U; or, in an ascending dose fashion, AMZ002 0.15, 0.20, 0.25, 0.30, 0.50, or 0.75 mg. The investigational product (AMZ002) and active comparators (Cortrosyn and H.P. Acthar Gel) were administered via intramuscular (IM) injection to the upper arm. The dose of Cortrosyn (0.25 mg by IM administration), the active control, was intended to produce maximal adrenal stimulation. This is the standard dose for adults and children ≥2 years of age recommended in the 2015 Endocrine Society Clinical Practice Guidelines for diagnostic testing of adrenal insufficiency (same dose whether Cortrosyn is administered intravenously or IM). […] Since 25 U of natural ACTH was expected to elicit […] adrenal response, it was considered the most sensitive dose to determine a pharmacodynamically equivalent dose of AMZ002 in this study. Therefore, this study included a cohort of subjects who received a single dose of 25 U H.P. Acthar Gel (representing the target PD for the investigational drug product in this study).
On Day-1, a single standard dose of dexamethasone (1 mg) was administered orally at approximately midnight (8 hours prior to study drug administration the following day) to suppress endogenous adrenocorticotropic hormone (ACTH) production and remove this as a confounding variable in the measurements. […]
For each PD (pharmacodynamics) analyte (plasma cortisol and an adrenal panel of intermediates [DHA, 17-hydroxypregnenolone, and 17-hydroxyprogesterone]), the following parameters were calculated with the actual time points using a noncompartmental method as appropriate: • Maximum observed PD measurement (Emax); • Time to reach maximum observed PD measurement (TEmax); and • Area under the PD effect-time curve from time 0 to the last quantifiable PD measurement (AUEC0−t).
The PD parameters using baseline-corrected PD measurements were calculated similarly, if applicable. […] The following parameters were also calculated using baseline-corrected PD measurements: • Area under the PD effect-time curve that was above baseline (AUECabove B); and • Total time that response was≥baseline (Timeabove B). […]

The nature of series [3]: Phase 1 single ascending dose study: immunogenicity (antidrug antibodies). The settings on record: single IM dose; consistent with that observed for H.P. Acthar Gel. The procedure: as §1
Blood samples for evaluation of immunogenicity as measured by ADA were obtained at the Treatment Visit (Day 1) (predose), prior to discharge (Day 3), the Follow-Up Visit (Day 8 [+2 days])/Early Termination Visit, and subsequent visits for collection of ADA (Day 15 [+2 days] and Day 29 [+2 days]).

Series [4] can be described thus: Phase 1 single ascending dose study: safety and tolerability. The settings on record: for safety and tolerability: single IM doses 0.15 mg to 0.75 mg. The method, then:
as §1
Safety parameters included all AEs; physical examination findings; vital sign measurements; 12-lead ECG findings; standard clinical laboratory measurements (eg, serum chemistry, hematology, and urinalysis); and injection site evaluations.

Consider one substance from patent US20240033328A1, “ACTH IN THE TREATMENT OF AN ADRENOCORTICOTROPIC HORMONE RESPONSIVE PEDIATRIC DISORDER” (Amzell B.V., priority 2020, published 2024).

A word on the Tmax: it is the time at which the peak concentration occurs.

“H-SYSMEHFRWGKPVGKKRRPVKVYPNGAEDELAEAFPLEF-OH [AMZ002]”: the half-life in series [1] (human, plasma, single IM dose, range across dose cohorts, read-out: mean t½) lay within 0.911 to 2.59 h. For the same substance, in series [1] (human, plasma, single IM dose, range across dose cohorts, read-out: median Tmax), the Tmax fell in the range of 0.08 to 2 h. In series [1] (single IM dose), the absorption result was “rapidly absorbed” and the “time to mean peak plasma concentrations after dosing” value is no more than 2 h. In addition, the “increase of exposure with increase in dose” value in series [1] (single IM dose 0.15 to 0.75 mg) is “greater than proportional”. Moreover, in series [2] (highest dose levels within 0.15 to 0.75 mg, single IM dose, FIG. 1), the “cortisol response compared to 25 U H.P. Acthar Gel, highest levels” value is “slightly greater and more sustained effects”. For the same substance, the “cortisol response compared to 25 U H.P. Acthar Gel, lowest levels” value in series [2] (lowest dose levels within 0.15 to 0.75 mg, single IM dose, FIG. 1) is recorded as “maximal effect that is less sustained”. Moreover, the “DHA response, lower levels compared to higher levels” value in series [2] (single IM dose 0.15 to 0.75 mg, FIG. 2) was “maximal effect that is less sustained”. Besides, the “17-hydroxypregnenolone response, lower levels compared to higher levels” value in series [2] (single IM dose 0.15 to 0.75 mg, FIG. 3) is reported as “maximal effect that is less sustained”. The “incidence of antibody formation (minimum of 1 positive postdose result)” value in series [3] is listed as “low”. Also, in series [4] (single IM doses), the “deaths, treatment-emergent SAEs, withdrawals due to a TEAE” value was “no deaths, treatment-emergent serious adverse events (SAEs), or withdrawals due to a treatment emergent adverse event (TEAE)” and the “severity of TEAEs” value is “mild or moderate”. Further, in series [4], the safety and tolerability entry was “safe and well tolerated”. The safety and tolerability entry in series [4] (listed as ACTH having SEQ ID NO:1) was “generally safe and well tolerated”.
